Experiment [1] has as its system mouse peritoneal macrophages. The experiment in a line: Cholesteryl ester hydrolysis in macrophages. In kind it is cell-based. To be noted: AcLDL 50 μg/ml + S-58035 1 μg/ml + 5 × 10^-6 M compound. How it is done: These experiments were performed by incubating cells preloaded with [^3 H]cholesterol in the presence of the specific ACAT inhibitor S-58035. The blockage of intracellular reesterification of cholesterol allowed the assessment of the ability of cells to hydrolyze the accumulated cholesterol esters.
For studies involving the quantitation of the hydrolysis of cholesteryl esters in cytoplasmic lipid droplets, cells, prepared according to the procedure in Example 6A, are loaded with cholesteryl esters by exposure for 24 hours to the medium containing 50 μg/ml acetyl LDL. [1,2-^3 H]Cholesterol is included in all loading media at a concentration of 0.5 μCi/ml. After 24 hours loading period, during which time the radiolabeled cholesterol is incorporated and esterified, the cell monolayers are washed and incubated an additional 24 hours in medium containing 0.1% bovine serum albumin to allow the intracellular pools of labelled cholesterol to equilibrate to the same specific activity. To quantitate cholesteryl ester hydrolysis, the loaded cells are incubated for up to 24 hours in Dulbecco's minimum essential medium containing, 0.1% bovine serum albumin, lercanidipines, and the compound S-58035, an inhibitor of acyl-coenzyme A-cholesterol acyltransferase. The inhibition of acyl-coenzyme A-cholesterol acyltransferase prevents the reesterification of any free cholesterol generated by cholesteryl ester hydrolysis and thus allows assessment of the activity of the hydrolase. The hydrolysis of the cholesteryl esters is quantified by determining the decrease of radiolabeled cholesteryl esters (E. H. Harrison et al., J. Lipid. Res. 31: […] with phosphate buffered saline and extracted with hexane:isopropanol (3:2 v/v). The media were extracted with chloroform:methanol (2:1 v/v). After solvent removal, free and esterified cholesterol were separated by TLC (isooctane:diethyl ether:acetic acid, 75:25:2 by volume). Cholesterol mass or radioactivity of the spots were determined by an enzymatic method (Boehringer Mannheim, Germany) (F. Bernini et al., Atherosclerosis 104: 19 (1993)) or by liquid scintillation counting (Lipoluma Lumac, Landgraf, The Netherlands) respectively.

Another experiment relates to renal hypertensive dogs. The experiment is described as follows: Blood pressure in renal hypertensive dogs, oral administration. It is filed as in vivo, dog. The conditions noted are these: for ED25: Canis lupus familiaris, linear regression analysis, read-out: ED25 (dose inducing 25% decrease in DBP at peak effect), 95% C.L. The method, then:
The antihypertensive effects of oral administration of lercanidipine and its enantiomers were tested in renal hypertensive dogs.
Male Beagle dogs weighing 12-13 kg, aging 1-3 years (Nossan Allevamenti, Italy) were used. Chronic sustained hypertension was induced by bilateral renal artery constriction, according to the Goldblatt method "two-kidney, two clip hypertension". Under barbiturate anaesthesia (35 mg/kg i.v.), during two different surgical interventions one month apart from each other, both renal arteries were clipped with original renal silver clips and narrowed by about 60-70%. After two months from the last intervention,an experimental renal hypertension was produced and the animals were suitable for the implantation of a catheter. Under sodium pentobarbital anaesthesia (35 mg/kg i.v.), in sterile conditions, the dogs were catheterized by inserting an indwelling cannula (PE 200 Clay Adams) into the ascending aorta through the right common carotid artery. The catheter was subcutaneously exteriorized at the back of the neck, filled with heparinized saline solution and flushed daily to prevent clotting. After a week recovery time from surgery, the animals were connected to a HP 1290A pressure transducer connected to an HP 8805B carrier amplifier of a Hewlett Packard HP 7700 multichannel polygraph, to monitor the arterial blood pressure. Heart rate was manually computed from the pressure trace.
All animals were alternatively treated with placebo, lercanidipine and its (R)- and (S)- enantiomers. The drugs were administered orally with a straight round aseptic tip catheter (Pores Serlat--France). The drugs were suspended in aqueous 0.5% Methocel A4C plus Antifoam M10 (10%). The amount administered was 1 ml/kg.
The suspending medicine was used as placebo. During experimental performance, the arterial blood pressure was continuously recorded 30 min. before (basal values) and up to 8 hours after drug administration.
The ED25 values (dose inducing 25% decrease in DBP at peak effect) were evaluated by linear regression analysis and summarized in the Table 4.

On to `COC(=O)C1=C(C)NC(C)=C(C(=O)OC(C)(C)CN(C)CCC(c2ccccc2)c2ccccc2)C1c1cccc([N+](=O)[O-])c1` (racemic) [LE, methyl 1,1,N-trimethyl-N-(3,3-diphenylpropyl)-2-aminoethyl 1,4-dihydro-2,6-dimethyl-4-(3-nitrophenyl)-pyridine-3,5-dicarboxylate], for which the “% of cholesteryl ester” value in experiment [1] is 12 ± 1.2%. Also, in the experiment on renal hypertensive dogs, the arterial blood pressure result was “dose-related decrease” and the ED25 amounted to 0.9 mg/kg.
For `COC(=O)C1=C(C)NC(C)=C(C(=O)OC(C)(C)CN(C)CCC(c2ccccc2)c2ccccc2)[C@@H]1c1cccc([N+](=O)[O-])c1` [(R)-LE, (R)-(-)METHYL 1,1-N-TRIMETHYL-N-(3,3-DIPHENYLPROPYL)-2-AMINOETHYL 1,4-DIHYDRO-2,6-DIMETHYL-4-(3-NITROPHENYL)PYRIDINE-3,5-DICARBOXYLATE], the “% of cholesteryl ester” value in experiment [1] was found to be 16 ± 2.1%. Further, the ED25 in the experiment on renal hypertensive dogs was above 30 mg/kg. Besides, the “decrease in DBP” value in the experiment with renal hypertensive dogs (up to 30 mg/kg) is reported as below 10%.
Turning to `COC(=O)C1=C(C)NC(C)=C(C(=O)OC(C)(C)CN(C)CCC(c2ccccc2)c2ccccc2)[C@H]1c1cccc([N+](=O)[O-])c1` [(S)-LE, (S)-(+)-METHYL 1,1-N-TRIMETHYL-N-(3,3-DIPHENYLPROPYL)-2-AMINOETHYL 1,4-DIHYDRO-2,6-DIMETHYL-4-(3-NITROPHENYL)PYRIDINE-3,5-DICARBOXYLATE], the “% of cholesteryl ester” value in experiment [1] came to 14 ± 0.4%. Further, in the experiment with renal hypertensive dogs, the arterial blood pressure result is reported as “dose-related decrease”, the “efficacy at lowering blood pressure relative to the racemate” value is recorded as “two fold more efficacious” and the ED25 is 0.4 mg/kg.

The values above are taken from US5912351A, “Anhydrous 1,4-Dihydropyridines and salts thereof” (Recordati, S.A. Chemical and Pharmaceutical Company, priority 1995, dated 1999).
